According to patent publication US20200270310A1, “MAFG AS A POTENTIAL THERAPEUTIC TARGET TO RESTORE CHEMOSENSITIVITY IN PLATINUM-RESISTANT CANCER CELLS” (FUNDACÓIN PARA LA INVESTIGACIÓN BIOMÉDICA DEL HOSPITAL …, priority 2017, published 2020):

B1: GCGGATGAAGACTGGTGTCGATGCATGTGTAGTGCATTTCGAGCCGTTCTATTGGTGTGCCCTAAATACGAGCAAC (nucleic acid)
chain: GCGGATGAAGACTGGTGTCGATGCATGTGTAGTGCATTTCGAGCCGTTCTATTGGTGTGCCCTAAATACGAGCAAC
modifications: chemistry not given here
notes: DNA aptamer selected against the MAFG protein by SELEX

Tests used:
Assay type in all cases: cell-based, human
H23R cells = test: Viability to CDDP after aptamer transfection (resistance index); conditions: comparison value for apMAFG6F
Description: FIG. 6. Viability curves combining the best dose of aptamers (25nM) and increasing doses of CDDP. Each experimental group was exposed for 72 h to 6 different CDDP concentrations after aptamers transfection; data were normalized to each untreated control, set to 100% and represent the mean±SD of at least 3 independent experiments performed in quadruplicate at each drug concentration for each cell line analyzed 25nM of aptamers and increasing doses of CDDP in H23S/R cells.
Once identified the best dose of aptamers, cells were transfected with aptamers and treated with increased doses of CDDP to assay viability and ROS production as mentioned above. In parallel, for all the experiments, cells were seeded in 24-well plates for aptamers extraction and confirmation of aptamers transfection.
(§1) HEK293 and H23S/R cells were seeded into 96-well plates then transfected with 5, 12.5, 25, 75 and 100 nM of MAFG aptamers or treated with PBS-Mg using Jet Pei PolyPlus transfection reagent (PolyPlus Transfection, USA). The dose of 25 nM aptamer was afterwards used in combination with increased doses of CDDP to assay viability and ROS production as described above. To confirm the aptamer-transfection efficiency cells were seeded in 24-well plates for aptamer isolation and confirmation of aptamer transfection by quantitative analysis. A Myc-DDK-tagged ORF clone of MAFG the negative control pCMV6 were used for in transient transfection (OriGene, USA) in combination with MAFG-aptamers following the same procedure.

IMIM-PC2 cells = test: Viability to CDDP
Excerpt: (§2) Fifteen human cancer cell lines were purchased from ATCC (Manassas, Va.) or ECACC (Sigma-Aldrich, Spain) and cultured as recommended. The CDDP-resistant variants A2780R and OVCAR3R were selected after a final exposure to […] cisplatin, respectively (Farma Ferrer, Spain), as previously described for H23R and H460R variants The additional 11 human cell lines, PC-3, LNCAP, H727, HT29, A549, BT474, LoVo, IMIM-PC-2, SKOV3, SW780 and IMR90, were used for further validations. For viability assays cells were treated with increasing doses of CDDP. The epigenetic reactivation drugs 5Aza-2deoxycytidine (5Aza-dC) and trichostatin A (TSA) (Sigma-Aldrich, Spain) were used at […] and at 300nM respectively.

LoVo cells = test: Viability to CDDP
Excerpt: as §2

[1] = tested on: H23S cells overexpressing MAFG; test: CDDP sensitivity of MAFG-overexpressing cells combined with aptamer
Description: as §1

Molecule	CDDP resistance index without aptamer (H23R cells)	IC50 of CDDP (IMIM-PC2 cells)	IC50 of CDDP (LoVo cells)	CDDP sensitivity of MAFG-overexpressing cells with aptamer [1]
[NH2][Pt]([NH2])([Cl])[Cl] [CDDP, Cisplatin]	2.63	over 2 μg/ml	over 2 μg/ml	–
B1	–	–	–	rescued the phenotype and re-sensitized the cells
